Source: patent publication US11464777B2, “Pharmaceutical composition for the treatment of pulmonary arterial hypertension” (Actelion Pharmaceuticals Ltd, priority 2018, dated 2022)

Experiments:
[1] = cited from earlier work
human PXR = target: T1, human PXR (Homo sapiens, UniProt O75469); experiment: Activation of human PXR; assay type: cell-based
T1 sequence (O75469 1-434): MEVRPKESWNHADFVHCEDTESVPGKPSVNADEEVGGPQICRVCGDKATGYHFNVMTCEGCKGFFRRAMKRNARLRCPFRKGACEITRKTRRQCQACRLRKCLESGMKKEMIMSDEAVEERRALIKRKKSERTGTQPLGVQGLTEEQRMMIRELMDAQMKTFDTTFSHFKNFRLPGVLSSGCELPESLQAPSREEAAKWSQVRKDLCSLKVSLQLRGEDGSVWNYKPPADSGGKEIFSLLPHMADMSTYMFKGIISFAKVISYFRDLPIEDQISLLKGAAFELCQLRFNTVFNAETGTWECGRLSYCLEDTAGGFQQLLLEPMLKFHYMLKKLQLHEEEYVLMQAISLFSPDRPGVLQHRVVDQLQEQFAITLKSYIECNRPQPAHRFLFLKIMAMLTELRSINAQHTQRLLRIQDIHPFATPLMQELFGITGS

[2] = Drug-drug interaction observations
CYP3A4 = CYP3A4 induction in human hepatocytes; assay type: in vitro ADME
[3] = tested on: ET receptors (ETA and ETB); details: cited from earlier work
BCRP transporters = target: T2, BCRP transporters (Homo sapiens, UniProt Q9UNQ0); experiment: Effect on pharmacokinetics of rosuvastatin (BCRP transporters); assay type: in vivo; details: macitentan 10 mg per day o.d.
T2 construct: BCRP is an efflux pump located in the gut, liver canalicular membrane, and kidney; from tissue; host or cells: gut, liver, kidney of dosed subjects (in vivo)
T2 sequence (Q9UNQ0 1-655): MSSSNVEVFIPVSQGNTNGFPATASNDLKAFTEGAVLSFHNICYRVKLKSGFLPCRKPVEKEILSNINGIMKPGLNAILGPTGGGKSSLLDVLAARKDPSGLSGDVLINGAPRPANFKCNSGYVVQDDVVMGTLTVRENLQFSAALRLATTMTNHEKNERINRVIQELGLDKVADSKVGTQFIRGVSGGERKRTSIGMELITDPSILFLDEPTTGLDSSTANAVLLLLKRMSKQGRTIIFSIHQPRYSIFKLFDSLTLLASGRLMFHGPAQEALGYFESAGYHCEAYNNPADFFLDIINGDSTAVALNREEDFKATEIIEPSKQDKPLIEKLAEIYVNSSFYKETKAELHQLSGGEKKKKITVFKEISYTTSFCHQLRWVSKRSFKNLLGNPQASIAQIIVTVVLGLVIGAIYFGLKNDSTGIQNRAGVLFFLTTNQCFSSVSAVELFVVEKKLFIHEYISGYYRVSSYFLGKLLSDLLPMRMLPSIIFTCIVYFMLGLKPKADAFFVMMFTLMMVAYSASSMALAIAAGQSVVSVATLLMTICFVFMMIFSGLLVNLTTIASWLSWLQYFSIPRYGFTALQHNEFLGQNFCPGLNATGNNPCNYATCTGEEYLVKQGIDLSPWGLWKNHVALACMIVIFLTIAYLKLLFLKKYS
Description: BCRP is an efflux pump located in the gut, liver canalicular membrane, and kidney, and is exposed to intracellular drug concentrations in the liver and the kidney.

[4] = Effect of macitentan on decrease in hemoglobin concentration, pooled Phase I studies, Emax model; assay type: in vivo, human; details: healthy volunteers
Description: Hemoglobin measurements were pooled from 3 Phase I clinical studies in healthy volunteers:
Study AC-055-102: Investigation of the PK, PD, safety and tolerability of macitentan in male subjects (the study protocol is described in the following publication: Sidharta et al., Safety, tolerability, pharmacokinetics, and pharmacodynamics of macitentan, an endothelin receptor antagonist, in an ascending multiple-dose study in healthy subjects. J. Clin. Pharmacol. (2013), 53(11),1131-1138)
Study AC-055-116: Investigation of the PK, PD, safety and tolerability of macitentan in male Japanese subjects (the study protocol is described in the following publication: Yokoyama et al., Tolerability, Safety, Pharmacokinetics, and Pharmacodynamics of Macitentan, a New Endothelin Receptor Antagonist, in Healthy Japanese Male Subjects. Rinsho yakuri/Japanese Journal of Clinical Pharmacology and Therapeutics (2016), 47, 143-150) […]
Hemoglobin concentrations measured in the morning of Day 11 of macitentan treatment and at baseline on Day −1 were used in the analysis. […]

plasma ET-1 = details: healthy human subjects, 1, 3, 10 and 30 mg; cited from earlier work
rats = details: cited from earlier work

Compound | time to peak plasma concentration ([1]; after the first dose of macitentan) | half-life in humans ([1]; humans) | plasma concentrations relative to macitentan ([1]; humans) | EC50 (human PXR) [µM] | Drug-Drug Interaction [2] | CYP3A4 mRNA and enzyme activity (CYP3A4) | affinity for the ET receptors relative to parent compound [3] | time to steady state ([1]; humans, repeated administration) | absorption into the plasma ([1]; humans) | effect on the pharmacokinetics of 1 mg rosuvastatin (BCRP transporters) | dose at which effect on hemoglobin decrease plateaus ([4]; Day 11 vs baseline Day -1) [mg] | maximum effect on hemoglobin decrease (Emax) ([4]; Day 11 vs baseline Day -1, nonlinear regression) | plasma ET-1 concentrations at steady-state (plasma ET-1) | dose of maximal or near-maximal effect in rats (rats; EMA Assessment Report) [mg/kg] | maximal effective dose in rats (rats; Iglarz 2014, Kunita-Takanezawa 2014) [mg/kg]
NS(=O)(=O)Nc1ncnc(OCCOc2ncc(Br)cn2)c1-c1ccc(Br)cc1 [ACT-132577] | about 30 hours | approximately 48 hours | higher plasma concentrations than macitentan | 7.2 to 8.7 | No Drug-Drug Interaction has been observed | concentration-dependent increases | lower affinity | – | – | – | – | – | – | – | –
CCCNS(=O)(=O)Nc1ncnc(OCCOc2ncc(Br)cn2)c1-c1ccc(Br)cc1 [macitentan, propylsulfamic acid [5-(4-bromo-phenyl)-6-[2-(5-bromo-pyrimidin-2-yloxy)-ethoxy]-pyrimidin-4-yl]-amide] | – | about 16 hours | – | 1.1 to 1.2 | No Drug-Drug Interaction has been observed | concentration-dependent increases | – | steady state is reached by the third day of administration | absorbed slowly | has not shown any effect | 10 | around 1.23 g/dL | dose-dependent increase, with no further increase beyond the 10 mg oral dose | 10 | 30
